From PubChem BioAssay AID1963982 (Molecular Pharmacology Branch, DTP, NCI, 2024)
pIC50: −log10 of the molar value.

System: 313798-341-R-J2-PDC spheroids, viability
Test: Anticancer human tumor 313798-341-R-J2-PDC patient-derived cervical squamous cell carcinoma cell line growth inhibition [PI3K]
Conditions: spheroids with HUVEC and MSC; for pIC50: curve of first compound; for viability, T/C: stronger effect = lower value
In short: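 Multi-cell spheroids combine tumor cells with HUVEC and human MSCs, treated with targeted agents alone or with inavolisib, alpelisib, duvelisib or copanlisib. Concentrations fall in half-log steps from at or near clinical Cmax, or from 10 microM where Cmax is unknown; viability read-out.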

[1] = second compound 0.00316 µM, first compound 0.0316 µM
[2] = second compound 0.00316 µM, first compound 0.1 µM
[3] = second compound 0.00316 µM, first compound 0.316 µM
[4] = second compound 0.00316 µM, first compound 1 µM
[5] = second compound 0.00316 µM, first compound 3.16 µM
[6] = second compound 0.00316 µM, first compound 10 µM
[7] = second compound 0.01 µM, first compound 0.0316 µM
[8] = second compound 0.01 µM, first compound 0.1 µM
[9] = second compound 0.01 µM, first compound 0.316 µM
[10] = second compound 0.01 µM, first compound 1 µM
[11] = second compound 0.01 µM, first compound 3.16 µM
[12] = second compound 0.01 µM, first compound 10 µM
[13] = second compound 0.0316 µM, first compound 0.0316 µM
[14] = second compound 0.0316 µM, first compound 0.1 µM
[15] = second compound 0.0316 µM, first compound 0.316 µM
[16] = second compound 0.0316 µM, first compound 1 µM
[17] = second compound 0.0316 µM, first compound 3.16 µM
[18] = second compound 0.0316 µM, first compound 10 µM
[19] = second compound 0.1 µM, first compound 0.0316 µM
[20] = second compound 0.1 µM, first compound 0.1 µM
[21] = second compound 0.1 µM, first compound 0.316 µM
[22] = second compound 0.1 µM, first compound 1 µM
[23] = second compound 0.1 µM, first compound 3.16 µM
[24] = second compound 0.1 µM, first compound 10 µM
[25] = second compound 0.316 µM, first compound 0.0316 µM
[26] = second compound 0.316 µM, first compound 0.1 µM
[27] = second compound 0.316 µM, first compound 0.316 µM
[28] = second compound 0.316 µM, first compound 1 µM
[29] = second compound 0.316 µM, first compound 3.16 µM
[30] = second compound 0.316 µM, first compound 10 µM
[31] = second compound 1 µM, first compound 0.0316 µM
[32] = second compound 1 µM, first compound 0.1 µM
[33] = second compound 1 µM, first compound 0.316 µM
[34] = second compound 1 µM, first compound 1 µM
[35] = second compound 1 µM, first compound 3.16 µM
[36] = second compound 1 µM, first compound 10 µM
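Further: spheroids exposed to compounds for seven days.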
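Wherever viability, T/C is given: 100% = DMSO vehicle control viability.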

In the case of C#Cc1c(F)ccc2cc(O)cc(-c3ncc4c(N5CC6CCC(C5)N6)nc(OCC56CCCN5CC(F)C6)nc4c3F)c12 (stereo unspecified) + COc1c(OCCCN2CCOCC2)ccc2c3n(c(=NC(=O)c4cnc(N)nc4)nc12)CCN3, the pIC50 (second compound 0.00316 µM) was < 5.00, the pIC50 (second compound 0.01 µM) was < 5.00 and the pIC50 (second compound 0.0316 µM) was < 5.00. For the same molecule, the pIC50 (second compound 0.1 µM) was > 7.50, the pIC50 (second compound 0.316 µM) was > 7.50 and the pIC50 (second compound 1 µM) was > 7.50. For the same molecule, the viability, T/C [1] was 107%, the viability, T/C [2] was 103% and the viability, T/C [3] was 107%. The viability, T/C [4] was 110%, the viability, T/C [5] was 108% and the viability, T/C [6] was 100%. The viability, T/C [7] was 93.6%, the viability, T/C [8] was 106% and the viability, T/C [9] was 105%. The viability, T/C [10] was 108%, the viability, T/C [11] was 98.7% and the viability, T/C [12] was 102%. The viability, T/C [13] was 70.2%, the viability, T/C [14] was 83.3% and the viability, T/C [15] was 96.8%. For the same molecule, the viability, T/C [16] was 78.7%, the viability, T/C [17] was 72.7% and the viability, T/C [18] was 77.2%. The viability, T/C [19] was 40.1%, the viability, T/C [20] was 47.7% and the viability, T/C [21] was 45.1%. It also gave a viability, T/C [22] of 42.1%, a viability, T/C [23] of 39.5% and a viability, T/C [24] of 32.6%. The viability, T/C [25] was 17.8%, the viability, T/C [26] was 18.2% and the viability, T/C [27] was 16.7%. It also gave a viability, T/C [28] of 13.4%, a viability, T/C [29] of 15.3% and a viability, T/C [30] of 6.87%. The viability, T/C [31] was 9.9%, the viability, T/C [32] was 13.1% and the viability, T/C [33] was 12.1%. It also gave a viability, T/C [34] of 11.2%, a viability, T/C [35] of 8.79% and a viability, T/C [36] of 4.83%.
With CCN1CCN(Cc2ccc(Nc3ncc(F)c(-c4cc(F)c5nc(C)n(C(C)C)c5c4)n3)nc2)CC1 + COc1c(OCCCN2CCOCC2)ccc2c3n(c(=NC(=O)c4cnc(N)nc4)nc12)CCN3 the pIC50 (second compound 0.00316 µM) was < 6.00, the pIC50 (second compound 0.01 µM) was < 6.00 and the pIC50 (second compound 0.0316 µM) was < 6.00. For the same molecule, the pIC50 (second compound 0.1 µM) was > 8.50, the pIC50 (second compound 0.316 µM) was > 8.50 and the pIC50 (second compound 1 µM) was > 8.50. For the same molecule, the viability, T/C (second compound 0.00316 µM, first compound 0.00316 µM) was 99.7%, the viability, T/C (second compound 0.00316 µM, first compound 0.01 µM) was 102% and the viability, T/C [1] was 117%. The viability, T/C [2] was 111%, the viability, T/C [3] was 119% and the viability, T/C [4] was 105%. It also gave a viability, T/C (second compound 0.01 µM, first compound 0.00316 µM) of 98.6%, a viability, T/C (second compound 0.01 µM, first compound 0.01 µM) of 91% and a viability, T/C [7] of 99%. It also gave a viability, T/C [8] of 125%, a viability, T/C [9] of 113% and a viability, T/C [10] of 102%. It also gave a viability, T/C (second compound 0.0316 µM, first compound 0.00316 µM) of 83.7%, a viability, T/C (second compound 0.0316 µM, first compound 0.01 µM) of 86.6% and a viability, T/C [13] of 77.3%. The viability, T/C [14] was 80.7%, the viability, T/C [15] was 90% and the viability, T/C [16] was 80%. For the same molecule, the viability, T/C (second compound 0.1 µM, first compound 0.00316 µM) was 43.1%, the viability, T/C (second compound 0.1 µM, first compound 0.01 µM) was 44% and the viability, T/C [19] was 43.4%. The viability, T/C [20] was 36.6%, the viability, T/C [21] was 41.9% and the viability, T/C [22] was 45.9%. For the same molecule, the viability, T/C (second compound 0.316 µM, first compound 0.00316 µM) was 13.6%, the viability, T/C (second compound 0.316 µM, first compound 0.01 µM) was 15.5% and the viability, T/C [25] was 14.5%. The viability, T/C [26] was 16.4%, the viability, T/C [27] was 19.8% and the viability, T/C [28] was 30%. The viability, T/C (second compound 1 µM, first compound 0.00316 µM) was 11.4%, the viability, T/C (second compound 1 µM, first compound 0.01 µM) was 14.3% and the viability, T/C [31] was 13.9%. For the same molecule, the viability, T/C [32] was 11.7%, the viability, T/C [33] was 18.3% and the viability, T/C [34] was 27.4%.
Work on CC(C)NCC(C(=O)N1CCN(c2ncnc3c2C(C)CC3O)CC1)c1ccc(Cl)cc1 (stereo unspecified) + COc1c(OCCCN2CCOCC2)ccc2c3n(c(=NC(=O)c4cnc(N)nc4)nc12)CCN3 yielded a pIC50 (second compound 0.00316 µM) of 5.62, a pIC50 (second compound 0.01 µM) of 5.92 and a pIC50 (second compound 0.0316 µM) of 5.79. For the same molecule, the pIC50 (second compound 0.1 µM) was > 7.50, the pIC50 (second compound 0.316 µM) was > 7.50 and the pIC50 (second compound 1 µM) was > 7.50. The viability, T/C [1] was 97.3%, the viability, T/C [2] was 99% and the viability, T/C [3] was 83%. It also gave a viability, T/C [4] of 64.3%, a viability, T/C [5] of 46.9% and a viability, T/C [6] of 33%. For the same molecule, the viability, T/C [7] was 85.9%, the viability, T/C [8] was 97.1% and the viability, T/C [9] was 81.1%. The viability, T/C [10] was 52%, the viability, T/C [11] was 39.2% and the viability, T/C [12] was 29.8%. The viability, T/C [13] was 74.8%, the viability, T/C [14] was 73.6% and the viability, T/C [15] was 59.9%. The viability, T/C [16] was 63.2%, the viability, T/C [17] was 33% and the viability, T/C [18] was 26.1%. For the same molecule, the viability, T/C [19] was 42.6%, the viability, T/C [20] was 38.6% and the viability, T/C [21] was 36.9%. For the same molecule, the viability, T/C [22] was 34%, the viability, T/C [23] was 23.9% and the viability, T/C [24] was 18.6%. For the same molecule, the viability, T/C [25] was 15.2%, the viability, T/C [26] was 18.4% and the viability, T/C [27] was 15.9%. It also gave a viability, T/C [28] of 17.6%, a viability, T/C [29] of 16.3% and a viability, T/C [30] of 8.87%. It also gave a viability, T/C [31] of 10.8%, a viability, T/C [32] of 11.6% and a viability, T/C [33] of 9.87%. For the same molecule, the viability, T/C [34] was 13.1%, the viability, T/C [35] was 10.6% and the viability, T/C [36] was 5.77%.
